Measurements as given in ChEMBL document CHEMBL1201862, “PubChem BioAssay data set” (2004).
Activity calls are given as the source filed them.

Experiments:
[1] = HepG2 cell cytotoxicity, dose response, cytotoxicity control, plate reader, dry powder samples (AID 1159569); format: functional, cell-based;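 note: inhibitor potency with signal falling toward the positive control level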
[2] = P. falciparum Dd2 growth inhibitors, dose response, SYBR Green, cherry-picked samples (AID 1159567); format: functional, cell-based
[3] = P. falciparum 3D7-ScDHODH growth inhibitors, dose response, SYBR Green, dry powder samples (AID 1159570); format: functional, cell-based;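 note: parasite growth measured after 72 hours of compound exposure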
[4] = P. falciparum ATP4 D1247Y mutant growth inhibitors, dose response, NITD609-resistant line, SYBR Green, dry powder (AID 1159571); format: functional, cell-based;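 note: parasites synchronized at ring stage by sorbitol before testing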
[5] = P. falciparum Dd2 growth inhibitors, dose response, SYBR Green, dry powder samples (AID 1159566); format: functional, cell-based;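 note: potency for growth inhibition with lower SYBR green DNA signal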
[6] = inhibitors of PGC1a acetylation in cells, dose response, cell-based, cherry-picked samples (AID 720514); format: functional;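 note: potency may reflect raised or lowered acetylation signal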
Beta-lactamase [7] = molecular target: Beta-lactamase (Salmonella choleraesuis (strain SC-B67), UniProt Q5J463); assay: Epi-absorbance-based counterscreen for selective VIM-2 inhibitors: dose response biochemical high throughput screening assay to identify inhibitors of TEM-1 serine-beta-lactamase.
Sequence of Beta-lactamase (Salmonella choleraesuis (strain SC-B67), UniProt Q5J463) (Q5J463 whole entry): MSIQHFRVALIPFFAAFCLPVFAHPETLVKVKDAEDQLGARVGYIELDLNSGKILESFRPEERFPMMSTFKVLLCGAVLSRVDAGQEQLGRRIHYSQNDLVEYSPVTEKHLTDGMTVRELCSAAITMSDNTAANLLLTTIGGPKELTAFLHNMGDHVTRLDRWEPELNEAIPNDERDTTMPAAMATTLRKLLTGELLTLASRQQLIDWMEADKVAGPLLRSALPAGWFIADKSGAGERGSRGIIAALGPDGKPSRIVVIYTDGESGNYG

Beta-lactamase [8] = molecular target: T1, Beta-lactamase (Pseudomonas aeruginosa, UniProt Q79MP6); assay: IMP-1 metallo-beta-lactamase inhibitors, dose response, selectivity assay for VIM-2 inhibitor project, biochemical, epi-absorbance (AID 1920)
T1 sequence (Q79MP6 whole entry): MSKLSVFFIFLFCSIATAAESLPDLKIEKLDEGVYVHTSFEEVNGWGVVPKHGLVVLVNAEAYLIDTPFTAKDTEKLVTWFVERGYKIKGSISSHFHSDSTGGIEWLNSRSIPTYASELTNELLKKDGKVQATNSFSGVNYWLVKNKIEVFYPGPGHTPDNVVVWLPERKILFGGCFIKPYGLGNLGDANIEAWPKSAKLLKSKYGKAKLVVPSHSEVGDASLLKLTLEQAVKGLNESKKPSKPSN

Beta-lactamase [9] = molecular target: T1, Beta-lactamase; assay: […] counterscreen for selective VIM-2 inhibitors: dose response biochemical high throughput screening assay to identify inhibitors of IMP-1 metallo-beta-lactamase.
[10] = molecular target: T2, Sentrin-specific protease 1 (Homo sapiens, UniProt Q9P0U3); assay: potency of human SENP1 inhibitors, dose response, biochemical, kinetic FRET (AID 651697); format: functional; conditions: read-out: IC50_Mean
T2 sequence (Q9P0U3 whole entry): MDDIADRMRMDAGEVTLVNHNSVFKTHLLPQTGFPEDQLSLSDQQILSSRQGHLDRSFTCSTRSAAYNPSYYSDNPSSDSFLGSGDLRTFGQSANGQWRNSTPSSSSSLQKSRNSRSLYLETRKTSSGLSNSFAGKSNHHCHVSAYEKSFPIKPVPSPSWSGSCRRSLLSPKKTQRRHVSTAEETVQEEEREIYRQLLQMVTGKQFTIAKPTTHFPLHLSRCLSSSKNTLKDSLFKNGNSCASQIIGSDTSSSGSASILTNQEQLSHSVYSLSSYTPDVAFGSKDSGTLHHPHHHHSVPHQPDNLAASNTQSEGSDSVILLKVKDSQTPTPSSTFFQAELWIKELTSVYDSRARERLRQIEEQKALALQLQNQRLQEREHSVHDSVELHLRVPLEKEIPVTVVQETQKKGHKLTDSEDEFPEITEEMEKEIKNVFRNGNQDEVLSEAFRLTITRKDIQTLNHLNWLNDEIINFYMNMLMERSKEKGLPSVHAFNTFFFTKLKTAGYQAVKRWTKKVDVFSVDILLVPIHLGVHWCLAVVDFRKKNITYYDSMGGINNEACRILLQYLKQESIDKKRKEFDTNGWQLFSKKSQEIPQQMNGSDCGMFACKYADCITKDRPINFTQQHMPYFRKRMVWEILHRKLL

[11] = molecular target: T2, Sentrin-specific protease 1; assay: Dose response confirmation of small molecule inhibitors of the catalytic domain of the SUMO protease, SENP1 in a FRET assay.; format: functional; conditions: read-out: IC50_Mean
[12] = molecular target: Dual specificity tyrosine-phosphorylation-regulated kinase 1A (Rattus norvegicus, UniProt Q63470); format: biochemical, Homo sapiens
Cytochrome P450 2D6 = Cytochrome P450 2D6 (Homo sapiens, UniProt P10635);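 note: CYP2D6 member of a cytochrome P450 panel assay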
Sequence of Cytochrome P450 2D6 (P10635 whole entry): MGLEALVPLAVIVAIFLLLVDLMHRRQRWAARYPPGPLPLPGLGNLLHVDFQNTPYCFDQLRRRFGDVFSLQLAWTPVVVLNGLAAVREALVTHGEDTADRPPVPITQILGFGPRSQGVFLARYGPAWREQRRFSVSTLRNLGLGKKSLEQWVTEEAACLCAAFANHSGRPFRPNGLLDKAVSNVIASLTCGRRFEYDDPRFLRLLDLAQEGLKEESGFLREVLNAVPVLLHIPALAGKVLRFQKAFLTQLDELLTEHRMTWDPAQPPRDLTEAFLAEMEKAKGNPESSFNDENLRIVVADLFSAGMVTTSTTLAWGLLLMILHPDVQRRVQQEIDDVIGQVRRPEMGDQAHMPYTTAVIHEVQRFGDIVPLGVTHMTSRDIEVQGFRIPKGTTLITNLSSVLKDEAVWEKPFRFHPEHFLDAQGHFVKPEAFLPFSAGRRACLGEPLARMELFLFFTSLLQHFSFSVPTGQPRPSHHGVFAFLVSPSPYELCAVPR

[13] = Luminescence Cell-Based Dose Response HTS to Identify Inhibitors of 5'UTR Stem-Loop Driven Prion Protein mRNA Translation in H4 Neuroglioblastoma Cells. [Related pubchem assays: 1827 (Project Summary), 1813 (Primary HTS)]; format: functional
[14] = ADAM10 protease inhibitors, dose response, selectivity assay for ADAM17 exosite inhibitor project, biochemical, FRET peptide substrate, recombinant human ADAM10 (AID 743259);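 note: ADAM10 enzyme cleaving a FRET peptide substrate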
[15] = inhibitors of SNCA 5'UTR-driven reporter translation, confirmation, H4 neuroglioma cells, luminescence (AID 1988); format: functional, cell-based
[16] = molecular target: Disintegrin and metalloproteinase domain-containing protein 17 (Homo sapiens, UniProt P78536); assay: exosite inhibitors of ADAM17, dose response, biochemical (AID 743260)
Sequence of Disintegrin and metalloproteinase domain-containing protein 17 (P78536 whole entry, the tested form may be a part): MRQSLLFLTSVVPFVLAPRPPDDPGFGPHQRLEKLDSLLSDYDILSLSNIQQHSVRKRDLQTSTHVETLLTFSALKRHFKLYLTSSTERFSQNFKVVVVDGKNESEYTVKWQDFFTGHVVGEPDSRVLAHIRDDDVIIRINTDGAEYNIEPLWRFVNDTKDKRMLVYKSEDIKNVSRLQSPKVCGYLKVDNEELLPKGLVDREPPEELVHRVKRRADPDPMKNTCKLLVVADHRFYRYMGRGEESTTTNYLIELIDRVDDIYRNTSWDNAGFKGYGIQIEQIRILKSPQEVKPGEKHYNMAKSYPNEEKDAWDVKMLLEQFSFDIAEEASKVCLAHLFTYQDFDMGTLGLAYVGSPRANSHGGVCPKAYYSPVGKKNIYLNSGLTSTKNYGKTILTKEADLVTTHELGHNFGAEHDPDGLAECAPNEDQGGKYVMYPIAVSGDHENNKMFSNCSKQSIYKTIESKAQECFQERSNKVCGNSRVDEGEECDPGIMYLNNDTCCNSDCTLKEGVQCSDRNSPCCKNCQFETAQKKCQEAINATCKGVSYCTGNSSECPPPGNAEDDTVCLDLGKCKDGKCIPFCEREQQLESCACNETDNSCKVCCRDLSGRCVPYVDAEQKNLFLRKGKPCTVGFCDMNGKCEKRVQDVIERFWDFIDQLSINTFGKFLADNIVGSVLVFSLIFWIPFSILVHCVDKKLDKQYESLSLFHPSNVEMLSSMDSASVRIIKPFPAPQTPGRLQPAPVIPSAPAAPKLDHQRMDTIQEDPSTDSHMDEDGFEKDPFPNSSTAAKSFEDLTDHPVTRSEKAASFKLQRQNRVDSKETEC

[17] = inhibitors of firefly luciferase expression or activity, dose response, H4 neuroglioma cells, luminescence (AID 1990); format: functional, cell-based
[18] = molecular target: COUP transcription factor 2 (Homo sapiens, UniProt P24468); assay: Luminescence-based cell-based high throughput dose response assay to identify inhibitors of COUP-TFII (NR2F2).; format: functional;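 note: HEK293 cells transiently cotransfected with COUP-TFII expression vector and reporter; luciferase reporter luminescence driven by COUP-TFII from the pX2-168 reporter plasmid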
Sequence of COUP transcription factor 2 (P24468 whole entry): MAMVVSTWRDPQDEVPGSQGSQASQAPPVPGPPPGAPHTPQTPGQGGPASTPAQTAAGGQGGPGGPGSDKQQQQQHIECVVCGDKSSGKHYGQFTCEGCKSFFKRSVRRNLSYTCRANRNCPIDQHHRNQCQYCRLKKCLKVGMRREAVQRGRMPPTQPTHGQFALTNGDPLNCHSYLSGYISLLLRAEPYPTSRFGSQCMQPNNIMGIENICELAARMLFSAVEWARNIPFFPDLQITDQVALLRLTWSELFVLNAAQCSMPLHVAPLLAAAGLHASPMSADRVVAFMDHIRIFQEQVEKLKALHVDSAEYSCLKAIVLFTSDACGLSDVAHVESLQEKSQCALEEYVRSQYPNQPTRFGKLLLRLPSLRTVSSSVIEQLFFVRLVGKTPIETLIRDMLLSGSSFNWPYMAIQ

[19] = molecular target: Protein-tyrosine kinase 2-beta (Homo sapiens, UniProt Q14289);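 note: potency of inhibitors of PYK2 kinase phosphorylation of poly-GT substrate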
Sequence of Protein-tyrosine kinase 2-beta (Q14289 whole entry): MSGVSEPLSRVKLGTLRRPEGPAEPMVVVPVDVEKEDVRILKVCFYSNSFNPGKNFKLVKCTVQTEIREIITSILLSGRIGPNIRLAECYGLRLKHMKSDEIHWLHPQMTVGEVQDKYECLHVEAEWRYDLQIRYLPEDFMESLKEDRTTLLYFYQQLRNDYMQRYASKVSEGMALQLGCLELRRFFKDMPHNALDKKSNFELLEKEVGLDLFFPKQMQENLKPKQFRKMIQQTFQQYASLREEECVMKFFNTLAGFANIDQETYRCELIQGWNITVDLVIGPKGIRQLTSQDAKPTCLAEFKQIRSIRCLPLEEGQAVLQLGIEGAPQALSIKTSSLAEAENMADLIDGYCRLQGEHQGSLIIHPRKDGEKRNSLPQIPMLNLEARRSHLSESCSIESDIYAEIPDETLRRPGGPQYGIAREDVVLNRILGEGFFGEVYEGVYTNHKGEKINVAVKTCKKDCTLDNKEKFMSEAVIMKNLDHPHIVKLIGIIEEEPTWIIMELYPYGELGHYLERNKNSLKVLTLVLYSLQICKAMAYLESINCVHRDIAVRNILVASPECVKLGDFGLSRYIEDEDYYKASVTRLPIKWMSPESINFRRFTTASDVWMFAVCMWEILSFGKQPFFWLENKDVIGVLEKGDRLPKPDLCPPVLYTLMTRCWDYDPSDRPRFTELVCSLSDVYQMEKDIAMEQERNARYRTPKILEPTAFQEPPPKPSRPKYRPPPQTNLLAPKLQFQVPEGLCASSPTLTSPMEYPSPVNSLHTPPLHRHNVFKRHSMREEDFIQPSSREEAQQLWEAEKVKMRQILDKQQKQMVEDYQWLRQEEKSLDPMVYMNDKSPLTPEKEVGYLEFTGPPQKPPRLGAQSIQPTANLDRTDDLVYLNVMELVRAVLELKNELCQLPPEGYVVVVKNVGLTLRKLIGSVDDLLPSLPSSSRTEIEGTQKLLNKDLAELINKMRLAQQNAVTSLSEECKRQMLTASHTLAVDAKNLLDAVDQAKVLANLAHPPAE

[20] = molecular target: T3, Trace amine-associated receptor 1 (Homo sapiens, UniProt Q96RJ0); assay: Fluorescence-based cell-based high throughput dose response assay to identify agonists of the human trace amine associated receptor 1 (TAAR1).; format: functional
T3 sequence (Q96RJ0 whole entry): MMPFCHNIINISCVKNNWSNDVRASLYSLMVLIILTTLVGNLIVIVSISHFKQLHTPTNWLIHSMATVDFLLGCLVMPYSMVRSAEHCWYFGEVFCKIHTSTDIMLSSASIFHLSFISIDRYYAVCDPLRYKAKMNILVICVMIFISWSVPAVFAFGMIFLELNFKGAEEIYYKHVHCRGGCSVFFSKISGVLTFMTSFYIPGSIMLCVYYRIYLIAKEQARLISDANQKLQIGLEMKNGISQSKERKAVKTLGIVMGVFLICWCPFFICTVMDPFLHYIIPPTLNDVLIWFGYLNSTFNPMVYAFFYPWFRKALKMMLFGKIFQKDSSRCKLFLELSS

cells [21] = format: functional, cell-based
cells [22] = format: functional, cell-based; remark: listed apart in the source
[23] = molecular target: T3, Trace amine-associated receptor 1; assay: Counterscreen for agonists of the human trace amine associated receptor 1 (hTAAR1): Fluorescence-based cell-based high throughput dose response assay to identify hTAAR1 agonist that also desensitize TAAR1 receptor response.; format: functional

With `COc1cccc(CN(C)C[C@H]2OCc3ccccc3-c3c(n(C)c4ccccc34)C(=O)N([C@H](C)CO)C[C@@H]2C)c1` the AC50 [1] was 20.6 µM (active), the AC50 [2] was 2.76 µM (active) and the AC50 [3] was 3.29 µM (active). For the same compound, the AC50 [4] was 3.55 µM (active) and the AC50 [5] was 2.87 µM (active).

In the case of `CO[C@@H]1CN(C)C(=O)c2cc(NC(C)=O)ccc2OC[C@@H](C)N(Cc2ccccc2C(=O)O)C[C@@H]1C`, the AC50 [6] is reported as 23.6 µM (active).

With `COc1ccccc1-c1n[nH]c(=S)n1Cc1ccco1` the IC50 (Beta-lactamase [7]) was > 59.6 µM (inactive), the IC50 (Beta-lactamase [8]) was > 59.6 µM (inactive) and the IC50 (Beta-lactamase [9]) was > 59.6 µM (inactive).

With `O=C(c1ccc(F)cc1)N1CC(=O)N2[C@H](CO)[C@H](c3ccc(-c4cccnc4)cc3)[C@H]2C1` the AC50 [1] was > 100 µM (inactive), the AC50 [2] was 0.821 µM (active) and the AC50 [3] was 1.2 µM (active). The AC50 [4] was 1.27 µM (active) and the AC50 [5] was 0.964 µM (active).

With `O=C1NC(=S)SC1=Cc1cc(Br)ccc1O` the IC50 [10] was 14.7 µM (active), the IC50 [11] was 2.57 µM (active) and the AC50 [12] was 8.94 µM (active).

In the case of `CC(Oc1ccc(Cl)cc1)c1ccnn1S(=O)(=O)c1ccccc1` (configuration not stated), the AC50 (Cytochrome P450 2D6) is reported as 14.1 µM (inconclusive), the EC50 [13] is reported as > 120 µM (not active) and the IC50 [14] is reported as 66.4 µM (inactive). The EC50 [15] was > 120 µM (not active), the IC50 [16] was > 69.5 µM (inactive) and the EC50 [17] was 17.4 µM (active).

With `CC1Cc2cc(-c3csc(NC(=O)Cc4ccccc4)n3)ccc2N1S(C)(=O)=O` (configuration not stated) the IC50 [18] was 6.11 µM (active).

In the case of `O=P(O)(O)c1ccccc1OCCCCCOc1ccccc1P(=O)(O)O`, the IC50 (Beta-lactamase [7]) is reported as > 59.6 µM (inactive), the IC50 (Beta-lactamase [8]) is reported as > 59.6 µM (inactive) and the IC50 (Beta-lactamase [9]) is reported as > 59.6 µM (inactive). For the same compound, the IC50 [19] was 2.23 µM (active).

In the case of `O=c1cc(Nc2ccc3c(c2)OCO3)[nH]c(=O)n1-c1ccc(Br)cc1`, the EC50 [20] is reported as 5.11 µM (active), the IC50 (cells [21]) is reported as > 29.9 µM (inactive) and the EC50 (cells [22]) is reported as > 29.9 µM (inactive). The IC50 [23] was 21.9 µM (inactive).
